Drawing on US8586550B2, “Thiazole derivatives as SGLT2 inhibitors and pharmaceutical composition comprising same” (Green Cross Corporation, priority 2010, dated 2013), this text covers IC50 for 24 compounds.

Each structure is given as a SMILES string.

This test deals with T1, Human SGLT2 (hSGLT2) (Homo sapiens, UniProt P31639).
T1 construct: expressed in transfected cells
T1 sequence (P31639 1-672): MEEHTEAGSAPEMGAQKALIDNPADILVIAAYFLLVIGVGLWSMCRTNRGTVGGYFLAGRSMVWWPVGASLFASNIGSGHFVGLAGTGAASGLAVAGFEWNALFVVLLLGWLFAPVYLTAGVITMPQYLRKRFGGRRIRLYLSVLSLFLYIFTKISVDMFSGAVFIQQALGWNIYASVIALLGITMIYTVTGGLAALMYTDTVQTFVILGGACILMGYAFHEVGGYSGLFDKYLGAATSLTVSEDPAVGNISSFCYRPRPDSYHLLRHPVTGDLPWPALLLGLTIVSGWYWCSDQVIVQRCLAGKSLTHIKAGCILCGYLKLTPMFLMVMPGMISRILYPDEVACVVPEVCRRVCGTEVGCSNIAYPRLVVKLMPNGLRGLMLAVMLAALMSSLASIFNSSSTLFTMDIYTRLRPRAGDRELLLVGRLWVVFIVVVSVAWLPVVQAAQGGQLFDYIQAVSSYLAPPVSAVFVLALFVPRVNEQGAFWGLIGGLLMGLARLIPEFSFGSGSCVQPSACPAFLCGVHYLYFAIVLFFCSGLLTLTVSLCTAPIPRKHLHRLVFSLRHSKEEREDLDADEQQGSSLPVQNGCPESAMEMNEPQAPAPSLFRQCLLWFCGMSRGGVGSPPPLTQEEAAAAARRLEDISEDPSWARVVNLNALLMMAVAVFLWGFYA
Briefly: Sodium-dependent glucose transport (14C-AMG uptake) assay in CHO cells stably expressing hSGLT2. It is filed as cell-based. The conditions noted are these: CHO cells expressing hSGLT2, 14C-AMG uptake, 37° C. for 2 h; single determinations; read-out: hSGLT2 Inhibitory Activity IC50. In outline: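 Uptake of 14C-α-methyl-D-glucopyranoside (8 μM labeled, 1 mM unlabeled, NaCl buffer pH 7.4) measured over 2 h at 37 °C with inhibitor in hSGLT2-transfected CHO cells after 10 min choline-buffer pretreatment. Radioactivity by liquid scintillation; IC50 from nonlinear regression.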
Turning to `CCCCc1cnc(Cc2cc([C@@H]3O[C@H](CO)[C@@H](O)[C@H](O)[C@H]3O)ccc2Cl)s1` [Example 13, (2S,3R,4R,5S,6R)-2-(3-((5-Butylthiazol-2-yl)methyl)-4-chlorophenyl)-6-(hydroxymethyl)-tetrahydro-2H-pyran-3,4,5-triol], the IC50 (in general, the concentration that inhibits the measured activity by half) turned out to be 119 nM.

As to `CCCc1cnc(Cc2cc([C@@H]3O[C@H](CO)[C@@H](O)[C@H](O)[C@H]3O)c(Cl)cc2Cl)s1` [Example 65, (2S,3R,4R,5S,6R)-2-(2,4-Dichloro-5-((5-propylthiazol-2-yl)methyl)phenyl)-6-(hydroxymethyl)tetrahydro-2H-pyran-3,4,5-triol], the IC50 stood at 43.7 nM.

As to `OC[C@H]1O[C@]2(OCc3cc(Cl)c(C4(c5ncc(-c6cccs6)s5)CC4)cc32)[C@H](O)[C@@H](O)[C@@H]1O` [Example 129, (1S,3′R,4′S,5′S,6′R)-5-Chloro-6′-(hydroxymethyl)-6-(1-(5-(thiophen-2-yl)thiazole-2-yl)cyclopropyl)-3′,4′,5′,6′-tetrahydro-3H-spiro[isobenzofuran-1,2′-pyran]-3′,4′,5′-triol], the IC50 was determined as 160 nM.

With `OC[C@H]1O[C@@H](c2cc(Cc3ncc(-c4ccccc4)s3)c(Cl)cc2F)[C@H](O)[C@@H](O)[C@@H]1O` [Example 57, (2S,3R,4R,5S,6R)-2-(4-Chloro-2-fluoro-5-((5-phenylthiazol-2-yl)methyl)phenyl)-6-(hydroxymethyl)tetrahydro-2H-pyran-3,4,5-triol], the IC50 was found to be 4.57 nM.

On to `CCOc1cnc(Cc2cc([C@@H]3O[C@H](CO)[C@@H](O)[C@H](O)[C@H]3O)ccc2Cl)s1` [Example 21, (2S,3R,4R,5S,6R)-2-(4-Chloro-3-((5-ethoxythiazol-2-yl)methyl)phenyl)-6-(hydroxymethyl)-tetrahydro-2H-pyran-3,4,5-triol], for which the IC50 was 18.8 nM.

For the compound `OC[C@H]1O[C@@H](c2ccc(Cl)c(C3(c4ncc(-c5cccs5)s4)CC3)c2)[C@H](O)[C@@H](O)[C@@H]1O` [Example 29, (2S,3R,4R,5S,6R)-2-(4-Chloro-3-(1-(5-(thiophen-2-yl)thiazol-2-yl)cyclopropyl)phenyl)-6-(hydroxymethyl)tetrahydro-2H-pyran-3,4,5-triol], the IC50 was 38.6 nM.

As to `Cc1ccc([C@@H]2O[C@H](CO)[C@@H](O)[C@H](O)[C@H]2O)cc1Cc1ncc(-c2ccco2)s1` [Example 30, (2S,3R,4R,5S,6R)-2-(3-((5-(Furan-2-yl)thiazol-2-yl)methyl)-4-methylphenyl)-6-(hydroxymethyl)tetrahydro-2H-pyran-3,4,5-triol], the IC50 worked out at 1.43 nM.

For the compound `OC[C@H]1O[C@@H](c2ccc(F)c(Cc3ncc(-c4ccco4)s3)c2)[C@H](O)[C@@H](O)[C@@H]1O` [Example 40, (2S,3R,4R,5S,6R)-2-(4-Fluoro-3-((5-(furan-2-yl)thiazol-2-yl)methyl)phenyl)-6-(hydroxymethyl)tetrahydro-2H-pyran-3,4,5-triol], the IC50 was 6.11 nM.

As to `OC[C@H]1O[C@@H](c2ccc(C3CC3)c(Cc3ncc(-c4ccco4)s3)c2)[C@H](O)[C@@H](O)[C@@H]1O` [Example 110, (2S,3R,4R,5S,6R)-2-(4-Cyclopropyl-3-((5-(furan-2-yl)thiazol-2-yl)methyl)phenyl)-6-(hydroxymethyl)-tetrahydro-2H-pyran-3,4,5-triol], the IC50 came to 54.8 nM.

As for `O=C(OCc1ccccc1)OC[C@H]1O[C@@H](c2ccc(Cl)c(Cc3ncc(-c4ccco4)s3)c2)[C@H](O)[C@@H](O)[C@@H]1O` [Example 164, Benzyl ((2R,3S,4R,5R,6S)-6-(4-chloro-3-((5-(furan-2-yl)thiazol-2-yl)methyl)phenyl)-3,4,5-trihydroxytetrahydro-2H-pyran-2-yl)methyl carbonate], the IC50 was 2.44 nM.

As to `CCOC(=O)OC[C@H]1O[C@@H](c2ccc(Cl)c(Cc3ncc(-c4ccco4)s3)c2)[C@H](O)[C@@H](O)[C@@H]1O` [Example 160, ((2R,3S,4R,5R,6S)-6-(4-Chloro-3-((5-(furan-2-yl)thiazol-2-yl)methyl)phenyl)-3,4,5-trihydroxytetrahydro-2H-pyran-2-yl)methyl ethyl carbonate], the IC50 came to 24 nM.

`OC[C@H]1O[C@@H](c2cc(Cc3ncc(-c4ccco4)s3)c(Cl)cc2OCCn2cncn2)[C@H](O)[C@@H](O)[C@@H]1O` [Example 122, (2S,3R,4R,5S,6R)-2-(2-(2-(1H-1,2,4-Triazol-1-yl)ethoxy)-4-chloro-5-((5-(furan-2-yl)thiazol-2-yl)methyl)phenyl)-6-(hydroxymethyl)-tetrahydro-2H-pyran-3,4,5-triol]: the IC50 was 131 nM.

In the case of `Cc1ccc(-c2ncc(Cc3cc([C@@H]4O[C@H](CO)[C@@H](O)[C@H](O)[C@H]4O)ccc3Cl)s2)s1` [Example 188, (2S,3R,4R,5S,6R)-2-(4-Chloro-3-((2-(5-methylthiophen-2-yl)thiazol-5-yl)methyl)phenyl)-6-(hydroxymethyl)tetrahydro-2H-pyran-3,4,5-triol], the IC50 is 10.4 nM.

Take `COC[C@H]1O[C@@H](c2ccc(Cl)c(Cc3ncc(-c4ccco4)s3)c2)[C@H](O)[C@@H](O)[C@@H]1O` [Example 139, (2S,3R,4R,5S,6R)-2-(4-Chloro-3-((5-(furan-2-yl)thiazol-2-yl)methyl)phenyl)-6-(methoxymethyl)-tetrahydro-2H-pyran-3,4,5-triol]: the IC50 was 23.5 nM.

With `CCOc1cc(Cl)c(Cc2ncc(-c3cccs3)s2)cc1[C@@H]1O[C@H](CO)[C@@H](O)[C@H](O)[C@H]1O` [Example 79, (2S,3R,4R,5S,6R)-2-(4-Chloro-2-ethoxy-5-((5-(thiophen-2-yl)thiazol-2-yl)methyl)phenyl)-6-(hydroxymethyl)tetralrydro-2H-pyran-3,4,5-triol], the IC50 was 4.29 nM.

As for `CCOC[C@H]1O[C@@H](c2ccc(Cl)c(Cc3ncc(-c4ccco4)s3)c2)[C@H](O)[C@@H](O)[C@@H]1O` [Example 140, (2S,3R,4R,5S,6R)-2-(4-Chloro-3-((5-(furan-2-yl)thiazol-2-yl)methyl)phenyl)-6-(ethoxymethyl)tetrahydro-2H-pyran-3,4,5-triol], the IC50 stood at 68.7 nM.

Turning to `CCCCCCCc1cnc(Cc2cc([C@@H]3O[C@H](CO)[C@@H](O)[C@H](O)[C@H]3O)c3ccccc3c2OC)s1` [Example 100, (2S,3R,4R,5S,6R)-2-(3-((5-Heptylthiazol-2-yl)methyl)-4-methoxynaphthalen-1-yl)-6-(hydroxymethyl)-tetrahydro-2H-pyran-3,4,5-triol], the half-maximal inhibitory concentration (IC50) was found to be 7.3 nM.

Take `C[C@H]1O[C@@H](c2ccc(Cl)c(Cc3ncc(-c4ccco4)s3)c2)[C@H](O)[C@@H](O)[C@@H]1O` [Example 146, (2S,3R,4S,5S,6R)-2-(4-Chloro-3-((5-(furan-2-yl)thiazol-2-yl)methyl)phenyl)-6-methyl-tetrahydro-2H-pyran-3,4,5-triol]: the IC50 was found to be 7.01 nM.

For `OC[C@H]1O[C@@H](c2cc(Cc3cnc(-c4ccsc4)s3)c(Cl)cc2F)[C@H](O)[C@@H](O)[C@@H]1O` [Example 203, (2S,3R,4R,5S,6R)-2-(4-Chloro-2-fluoro-5-((2-(thiophen-3-yl)thiazol-5-yl)methyl)phenyl)-6-(hydroxymethyl)tetrahydro-2H-pyran-3,4,5-triol], the IC50 came out at 1.39 nM.

As for `C=CCc1cnc(Cc2cc([C@@H]3O[C@H](CO)[C@@H](O)[C@H](O)[C@H]3O)ccc2Cl)s1` [Example 17, (2S,3R,4R,5S,6R)-2-(3-((5-Allylthiazol-2-yl)methyl)-4-chlorophenyl)-6-(hydroxymethyl)-tetrahydro-2H-pyran-3,4,5-triol], the IC50 stood at 11.5 nM.

As for `OC[C@H]1O[C@@H](c2cn(Cc3ncc(-c4ccccc4)s3)c3ccccc23)[C@H](O)[C@@H](O)[C@@H]1O` [Example 137, (2R,3S,4R,5R,6S)-2-(Hydroxymethyl)-6-(1-((5-phenylthiazol-2-yl)methyl)-1H-indol-3-yl)-tetrahydro-2H-pyran-3,4,5-triol], the IC50 came out at 124 nM.

As to `OC[C@H]1O[C@@H](n2cc(Cc3ncc(-c4ccco4)s3)c3ccccc32)[C@H](O)[C@@H](O)[C@@H]1O` [Example 130, (2R,3R,4S,5S,6R)-2-(3-((5-(Furan-2-yl)thiazol-2-yl)methyl)-1H-indol-1-yl)-6-(hydroxymethyl)-tetrahydro-2H-pyran-3,4,5-triol], the IC50 turned out to be 8.75 nM.

In the case of `CCCCc1cnc(Cc2cn([C@@H]3O[C@H](CO)[C@@H](O)[C@H](O)[C@H]3O)c3ccccc23)s1` [Example 135, (2R,3R,4S,5S,6R)-2-(3((5-Butylthiazol-2-yl)methyl)-1H-indol-1-yl)-6-(hydroxymethyl)tetrahydro-2H-pyran-3,4,5-triol], the IC50 worked out at 123 nM.

Regarding `OC[C@H]1O[C@@H](c2cc(Cc3ncc(-c4ccco4)s3)c(Cl)cc2F)[C@H](O)[C@@H](O)[C@@H]1O` [Example 53, (2S,3R,4R,5S,6R)-2-(4-Chloro-2-fluoro-5-((5-(furan-2-yl)thiazol-2-yl)methyl)phenyl)-6-(hydroxymethyl)tetrahydro-2H-pyran-3,4,5-triol], the IC50 stood at 3.49 nM.
